These results are taken from PubChem BioAssay (NCI).

Common to all, as to assay: inhibition of tumour cell growth, NCI panel, 48 h
Assay [1] deals with SF-539 CNS.
Assay [2] concerns SNB-78 CNS.
Assay [3] concerns M19-MEL melanoma.
For assay [4], the system named is K-562 leukemia.
For assay [5], the system named is DLD-1 colon.
For assay [6], the system named is DMS 114 small cell lung.
Assay [7] concerns CAKI-1 renal.
The subject of assay [8] is LXFL 529 NSCLC.
For assay [9], the system named is SK-MEL-5 melanoma.
Assay [10] concerns SK-OV-3 ovarian.
Assay [11] has as its system NCI-H460 lung.

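Growth conditions: 96-well plates. Treatment: test compound, 48 hours, 5 concentrations. Analysis: linear interpolation between bracketing concentrations; unreached endpoints set to highest concentration. Abbreviation: GI50, concentration required for 50% inhibition of growth. At the TGI there is no net growth.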 Bounds are passed on as bounds.

Turning to `CCOc1ccccc1N=Nc1ccc2oc(=O)c(C(C)=O)cc2c1`, the TGI in assay [1], in [2], in [3], in assay [4], in [5] and in assay [6] was greater than 100 µM each time. Further, the TGI in [7], in [8], in assay [9] and in assay [10] was greater than 100 µM each time.

For `CC1=CC2C(C=C1)S(=O)(=O)N1CC21c1ccccc1` (centres undefined), the TGI in assay [11], in assay [1], in [2], in [3], in assay [4] and in assay [5] was greater than 100 µM each time. Moreover, the TGI in [6], in assay [7], in assay [8], in [9] and in [10] was greater than 100 µM throughout.

For `CC1=C(c2nc3ccccc3s2)C(=O)OC1(C)C`, the TGI in [11], in [1], in assay [2], in assay [3], in assay [4] and in [5] was greater than 100 µM throughout. For the same molecule, the TGI in assay [6], in [7], in assay [8], in [9] and in assay [10] was greater than 100 µM each time.

For the molecule `CCOC1=C2N=C(C(CC)c3ccccc3F)N=C2C(=O)c2ccccc21` (centres undefined), the TGI in [11], in assay [1], in [3], in [4], in assay [6] and in assay [7] was greater than 100 µM each time. Also, the TGI in [8] was greater than 100 µM.

Consider `CCOC(=O)c1c2ccc(/C=C/c3ccccn3)ccc-2c(C(=O)OCC)c1N`, for which the TGI in assay [11], in assay [1], in assay [3], in [4], in assay [5] and in [6] was greater than 100 µM in each case. Also, the TGI in assay [7], in [8], in assay [9] and in [10] was greater than 100 µM in each case.

On to `O=Cc1c[nH]c2c(=O)[nH]cnc12`, for which the TGI in [2], in assay [3], in assay [4], in assay [5], in assay [6] and in [7] was greater than 100 µM throughout. Also, the TGI in assay [8], in [9] and in [10] was greater than 100 µM in each case.

Take `O[C@]12C=C(c3nccc4c3[nH]c3ccccc34)[C@@H]3CCN(CCCC/C=C\CC1)C[C@@]31CC3/C=C\CCCCN3[C@H]12` (some centres undefined): the TGI in [11] was found to be 2.02 µM; in [1], 4.6 µM; in [4], 2.84 µM; in assay [7], 6.17 µM; in [9], 0.34 µM; in assay [10], 0.743 µM.

As for `Clc1ccc(Cl)c(N=Nc2cc3c4c(c2)CCN4CCC3)c1`, the TGI in assay [11], in assay [1], in assay [4], in [7], in assay [9] and in assay [10] was greater than 10 µM each time.

Regarding `CC(C)c1cccc(C(C)C)c1NC(=O)C(=O)Cc1nc2ccc([N+](=O)[O-])cc2[nH]c1=O`, the TGI in assay [11], in [1], in assay [3], in assay [4], in assay [5] and in assay [6] was greater than 100 µM throughout. Besides, the TGI in [7], in assay [8] and in assay [10] was greater than 100 µM throughout.

As for `Cc1c(C)c2c(c(N)c1C#N)C(=O)N(O)C2=O`, the TGI in [11], in [1], in assay [4], in assay [7], in assay [9] and in assay [10] was greater than 100 µM each time.

Consider `COC(=O)C(CC(C)C)NC(=O)C(NC(=O)c1ccc(-c2ccc(Cl)cc2Cl)o1)C(C)C` (centres undefined), for which the TGI is 34.2 µM in [11]; greater than 100 µM in assay [1]; 53.1 µM in assay [4]; greater than 100 µM in [7]; 49.9 µM in assay [9]; greater than 100 µM in assay [10].

Regarding `COc1cc2ccc3c4ccccc4cnc3c2cc1OC`, the TGI in [11], in assay [1], in assay [2], in [3], in [4] and in [5] was greater than 100 µM throughout. Besides, the TGI in assay [7], in assay [8], in [9] and in assay [10] was greater than 100 µM each time.

In the case of `CCc1n[nH]c(=O)n1CCCCCCCCn1c(CC)n[nH]c1=O`, the TGI in assay [11], in assay [1], in [4], in assay [7], in assay [9] and in assay [10] was greater than 100 µM in each case.

As for `CCCCOCCOCCOC1=CC(=O)c2c(O)ccc(O)c2C1=O`, the TGI in [11] was 3.69 µM; in [1] it was 3.46 µM; in assay [4], 6.25 µM; in [7], 3.76 µM; in assay [9] it was 2.25 µM; in assay [10], greater than 10 µM.

For the molecule `NS(=O)(=O)c1ccc(NC(=O)N/N=C/c2ccccc2O)cc1`, the TGI in [11], in assay [1], in assay [4], in [7], in [9] and in [10] was greater than 100 µM each time.

In the case of `COC1(CC[C@@H](C)COC2OC(CO)C(O)C(O)C2O)O[C@H]2C[C@H]3[C@@H]4CC=C5C[C@@H](OC6OC(CO)C(OC7OC(C)C(O)C(O)C7O)C(O)C6OC6OC(C)C(O)C(O)C6O)CC[C@]5(C)[C@H]4CC[C@]3(C)[C@H]2[C@@H]1C` (some centres undefined), the GI50 in assay [11] is 1.62 µM; in assay [1], 1.22 µM; in assay [4] it was 5.12 µM; in [7] it was 1.25 µM; in assay [9], 3.51 µM. Also, the TGI came to 5.43 µM in assay [11]; 2.86 µM in assay [1]; 16 µM in assay [4]; 2.61 µM in [7]; 12.2 µM in [9]; 3.09 µM in assay [10].

In the case of `FC(F)(F)c1ccc(C2ON=C(c3ccccc3)N2C23CC4CC(CC(C4)C2)C3)cc1` (centres undefined), the TGI in [11], in assay [1], in assay [4], in [7], in [9] and in assay [10] was greater than 10 µM each time.

With `FC(F)(F)c1ccccc1C1SCC2=Nc3ccccc3CN21` (centres undefined), the TGI in assay [11] is 31.8 µM; in assay [1], 22.6 µM; in [4], greater than 100 µM; in assay [7], greater than 100 µM; in assay [9], 27.9 µM; in assay [10] it was 42 µM.

Consider `O=C(O)c1nc2ccccc2nc1Nc1ccc(Cl)c(Cl)c1`, for which the TGI was 82.5 µM in [11]; 43.7 µM in [1]; greater than 100 µM in assay [4]; 77.9 µM in [7]; 47 µM in [9]; 88.1 µM in [10].

With `COc1ccc(C(O)/C(=N/N)c2nc3ccc(Cl)cc3[nH]c2=O)cc1` (centres undefined), the TGI in [11], in assay [1], in [4], in assay [7], in [9] and in [10] was greater than 100 µM in each case.

Turning to `O=C1N/C(=N\N=C\c2ccccc2)C(c2ccccc2)O1` (centres undefined), the TGI in assay [11], in assay [1], in assay [4], in assay [7], in assay [9] and in assay [10] was greater than 100 µM each time.

As for `COc1ccc(C2c3cc4c(cc3OC(NNc3ccccc3)C2C)OCO4)cc1` (centres undefined), the TGI in assay [11] was greater than 100 µM; in assay [1] it was 6.55 µM; in [4] it was greater than 100 µM; in assay [7], greater than 100 µM; in assay [9] it was 99.4 µM; in assay [10], greater than 100 µM.

In the case of `COC(=O)c1ccc2c(c1)CC1(C2)Cc2cc3c(cc2C1)CCC3`, the TGI in [11], in assay [1], in assay [4], in [7], in [9] and in assay [10] was greater than 100 µM in each case.

`COc1ccc(Nc2nc3ccccc3n3cccc23)cc1OC`: the TGI was 27.5 µM in [11]; 35 µM in [1]; greater than 100 µM in assay [4]; 89.1 µM in [7]; 24.2 µM in [9]; 63.5 µM in assay [10].

Turning to `CNC(=O)c1n[nH]n(C2CCCCC2)c1=S`, the TGI in [11], in assay [1], in assay [4], in assay [7], in assay [9] and in assay [10] was greater than 100 µM throughout.
